Measurements from ChEMBL document CHEMBL3826931, “Salinomycin Hydroxamic Acids: Synthesis, Structure, and Biological Activity of Polyether Ionophore Hybrids” (ACS Med Chem Lett, 2016).
pIC50: −log10 of the molar value. Activity calls are given as the source filed them. No cut-off for these calls is given here.

Tests used:
JIMT-1 [1] = test: Reduction in aldehyde dehydrogenase levels in human JIMT1 cells at 5 to 10 uM by ALDEFLUOR assay; type: functional, cell-based
MCF7 = test: Cytotoxicity against human MCF7 cells after 72 hrs by MTT assay; type: functional, cell-based; settings: MCF7, 72 h
[2] = Ionophoric activity in large unilamellar POPC/POPG (3:1) vesicles assessed as relaxation of potassium coupled-proton gradient by measuring decrease in internal pH at 100 pM after 300 secs by ratiometric pH reporter pyranin based spectroscopic analysis; type: ADME; settings: 5 min, 0.0001 µM
[3] = Cytotoxicity against human JIMT1 cells after 72 hrs by MTT assay; type: functional, cell-based; settings: JIMT-1, 72 h
[4] = Ionophoric activity in large unilamellar POPC/POPG (3:1) vesicles assessed as relaxation of potassium coupled-proton gradient by measuring decrease in internal pH at 1 pM after 300 secs by ratiometric pH reporter pyranin based spectroscopic analysis; type: ADME; settings: 5 min
JIMT-1 [5] = test: Reduction in aldehyde dehydrogenase levels in human JIMT1 cells at 0.52 uM by ALDEFLUOR assay (reference value: 30 to 60%); type: functional; design: scale not given: the % may be the effect or the level left

| SMILES | Activity (JIMT-1 [1]) | pIC50 (MCF7) | Activity [2] | pIC50 [3] | Activity [4] | Activity (JIMT-1 [5]) [%] |
| --- | --- | --- | --- | --- | --- | --- |
| CC[C@@H](C(=O)[C@@H](C)[C@@H](O)[C@H](C)[C@@H]1O[C@@H]([C@@H](CC)C(=O)NO)CC[C@@H]1C)[C@H]1O[C@]2(C=C[C@@H](O)[C@]3(CC[C@@](C)([C@H]4CC[C@](O)(CC)[C@H](C)O4)O3)O2)[C@H](C)C[C@@H]1C | inactive | 5.00 | Active | 5.17 | – | – |
| CC[C@@H](C(=O)[C@@H](C)[C@@H](O)[C@H](C)[C@@H]1O[C@@H]([C@@H](CC)C(=O)N(C)OC)CC[C@@H]1C)[C@H]1O[C@]2(C=C[C@@H](O)[C@]3(CC[C@@](C)([C@H]4CC[C@](O)(CC)[C@H](C)O4)O3)O2)[C@H](C)C[C@@H]1C | inactive | 5.03 | – | 5.00 | – | – |
| CC[C@@H](C(=O)[C@@H](C)[C@@H](O)[C@H](C)[C@@H]1O[C@@H]([C@@H](CC)C(=O)NOC)CC[C@@H]1C)[C@H]1O[C@]2(C=C[C@@H](O)[C@]3(CC[C@@](C)([C@H]4CC[C@](O)(CC)[C@H](C)O4)O3)O2)[C@H](C)C[C@@H]1C | inactive | 4.79 | – | 4.76 | – | – |
| CC[C@@H](C(=O)[C@@H](C)[C@@H](O)[C@H](C)[C@@H]1O[C@@H]([C@@H](CC)C(=O)O)CC[C@@H]1C)[C@H]1O[C@]2(C=C[C@@H](O)[C@]3(CC[C@@](C)([C@H]4CC[C@](O)(CC)[C@H](C)O4)O3)O2)[C@H](C)C[C@@H]1C [SALINOMYCIN] | – | 6.23 | – | 6.28 | Active | 60 |
| CC[C@@H](C(=O)[C@@H](C)[C@@H](O)[C@H](C)[C@@H]1O[C@@H]([C@@H](CC)C(=O)N(C)O)CC[C@@H]1C)[C@H]1O[C@]2(C=C[C@@H](O)[C@]3(CC[C@@](C)([C@H]4CC[C@](O)(CC)[C@H](C)O4)O3)O2)[C@H](C)C[C@@H]1C | inactive | < 4.70 | – | < 4.70 | – | – |
